ChEMBL document CHEMBL1153675, “Synthesis and opioid binding properties of 2-chloroacrylamido derivatives of 7,8-dihydromorphinans” (Bioorg Med Chem Lett, 1996)

Target: Mu-type opioid receptor (Bos taurus, UniProt P79350)
Assay: Compound was tested for Inhibition of [3H]DAMGO (0.25 nM) binding to mu receptor from bovine striatal membranes

Sequence of Mu-type opioid receptor (P79350 whole entry): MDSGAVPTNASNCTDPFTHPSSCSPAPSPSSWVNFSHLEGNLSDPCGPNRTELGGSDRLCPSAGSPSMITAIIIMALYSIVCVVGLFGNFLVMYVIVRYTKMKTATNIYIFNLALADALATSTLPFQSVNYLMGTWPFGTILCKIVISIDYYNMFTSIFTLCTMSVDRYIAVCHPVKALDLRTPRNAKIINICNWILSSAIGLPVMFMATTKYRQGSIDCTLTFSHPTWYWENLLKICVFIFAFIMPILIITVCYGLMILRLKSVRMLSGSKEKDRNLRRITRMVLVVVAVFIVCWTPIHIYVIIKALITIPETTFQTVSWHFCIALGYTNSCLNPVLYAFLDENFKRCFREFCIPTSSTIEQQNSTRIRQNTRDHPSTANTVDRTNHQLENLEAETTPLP

Going from `C=C(Cl)C(=O)N[C@@]12CCC(=O)[C@@H]3Oc4c(O)ccc5c4C31CCN(C)C2C5` (some centres undefined) to `C=C(Cl)C(=O)N[C@@]12CCC(=O)[C@@H]3Oc4c(O)ccc5c4C31CCN(CC1CC1)C2C5` (some centres undefined), the IC50 rises from 5.8 nM to 23.5 nM (4.1-fold).

Compared with `C=C(Cl)C(=O)N[C@@H]1CCC2C3Cc4ccc(O)c5c4C2(CCN3CC2CC2)[C@H]1O5` (some centres undefined), `C=C(Cl)C(=O)N[C@@H]1CCC2C3Cc4ccc(O)c5c4C2(CCN3C)[C@H]1O5` (some centres undefined) is 2.7-fold higher in IC50: 0.21 nM for the first, 0.56 nM for the second. The first is the more potent here.
